Read-outs that look alike come from different tables or passages of the source.
Experiments:
Thoracic aortic rings = test: Alternative thoracic aortic rings assay (Example 19b; resting tension as 100% inhibition); parameters: species or system rat; conditions: Table 10A; for inhibition at 1 µM / inhibition at 3 µM / inhibition at 10 µM / EC50: Rattus norvegicus; for inhibition at 1 µM: read-out: Percent Relaxation at 1 μM; for inhibition at 3 µM: read-out: Percent Relaxation at 3 μM; for inhibition at 10 µM: read-out: Percent Relaxation at 10 μM; for EC50: read-out: Aortic Ring EC50; for Percent Relaxation at 1 μM: printed as number or words instead of code
In short: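 Aortic rings (~2 mm) from male Sprague-Dawley rats (275-299 g) held at 1.0 g resting tension in Krebs-Henseleit at 37 °C under 95% O2/5% CO2, then precontracted with 100 ng/mL phenylephrine. Compounds in DMSO added cumulatively; relaxation recorded by force transducer and EC50 taken from concentration-response curves.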

[1] = biological target: soluble guanylate cyclase (sGC) (Homo sapiens (Human), UniProt Q02108+Q02153); test: sGC-HEK-cGMP assay run with SNP incubation (HEK WC assay); assay type: cell-based
Sequence of soluble guanylate cyclase (sGC) (Q02153 whole entry): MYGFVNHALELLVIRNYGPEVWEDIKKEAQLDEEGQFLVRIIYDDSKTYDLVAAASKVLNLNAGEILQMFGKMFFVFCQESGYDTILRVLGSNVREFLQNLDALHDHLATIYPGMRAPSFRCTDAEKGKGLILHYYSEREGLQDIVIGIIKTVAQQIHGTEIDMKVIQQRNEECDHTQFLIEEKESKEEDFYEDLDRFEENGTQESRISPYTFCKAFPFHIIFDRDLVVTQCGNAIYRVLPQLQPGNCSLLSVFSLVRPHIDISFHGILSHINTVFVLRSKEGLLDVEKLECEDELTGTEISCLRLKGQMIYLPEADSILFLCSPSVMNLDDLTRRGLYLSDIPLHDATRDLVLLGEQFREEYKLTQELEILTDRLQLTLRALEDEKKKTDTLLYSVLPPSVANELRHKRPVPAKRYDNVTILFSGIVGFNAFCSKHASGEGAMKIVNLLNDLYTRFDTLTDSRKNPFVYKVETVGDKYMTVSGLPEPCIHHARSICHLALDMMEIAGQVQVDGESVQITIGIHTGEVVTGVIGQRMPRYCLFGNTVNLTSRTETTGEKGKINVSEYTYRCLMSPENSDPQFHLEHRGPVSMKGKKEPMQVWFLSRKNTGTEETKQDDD
Sequence of soluble guanylate cyclase (sGC) (Q02108 whole entry): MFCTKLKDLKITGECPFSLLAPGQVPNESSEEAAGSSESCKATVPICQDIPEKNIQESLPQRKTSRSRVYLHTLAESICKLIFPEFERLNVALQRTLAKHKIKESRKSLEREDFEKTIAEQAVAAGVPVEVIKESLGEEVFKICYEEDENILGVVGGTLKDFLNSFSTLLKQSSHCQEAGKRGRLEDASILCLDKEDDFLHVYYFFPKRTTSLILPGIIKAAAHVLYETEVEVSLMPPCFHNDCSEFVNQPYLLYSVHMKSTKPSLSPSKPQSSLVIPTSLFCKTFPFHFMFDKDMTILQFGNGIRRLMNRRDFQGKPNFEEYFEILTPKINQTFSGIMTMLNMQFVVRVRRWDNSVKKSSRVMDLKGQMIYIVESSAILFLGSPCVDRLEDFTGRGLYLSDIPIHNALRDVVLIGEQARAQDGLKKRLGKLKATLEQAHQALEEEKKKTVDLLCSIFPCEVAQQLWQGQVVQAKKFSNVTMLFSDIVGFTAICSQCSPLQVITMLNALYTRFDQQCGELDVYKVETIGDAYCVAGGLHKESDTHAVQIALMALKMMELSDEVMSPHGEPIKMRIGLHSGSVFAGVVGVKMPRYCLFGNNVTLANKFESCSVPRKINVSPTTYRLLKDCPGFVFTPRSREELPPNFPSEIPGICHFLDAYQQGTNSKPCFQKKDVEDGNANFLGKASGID
In short: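 HEK293 cells with endogenous sGC were pretreated with 0.5 mM IBMX for 15 min at 37 °C, then exposed to test compound plus sodium nitroprusside for 10 min at 37 °C.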

[2] = biological target: T1, Human soluble guanylate cyclase enzyme (hsGC) (Homo sapiens (Human), UniProt Q02108+Q02153); test: Purified human sGC enzyme synergy assay in the presence of 1 μM sodium nitroprusside (SNP); assay type: biochemical; conditions: for sGC Enzyme (fold increase at 30 μM with SNP): 30 μM compound; for sGC Enzyme (fold increase at 10 μM with SNP): 10 μM compound
T1 sequence (Q02153 whole entry): as the sequence (Q02153 whole entry) above
T1 sequence (Q02108 whole entry): as the sequence (Q02108 whole entry) above
In short: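 Purified human sGC (5 ng) incubated 30 min at 37 °C with compounds at 10 or 30 μM, 1 μM sodium nitroprusside, 300 μM GTP and 1 mM IBMX in Tris pH 8.0 with MgCl2/DTT. cGMP quantified against a standard curve, and specific activity expressed as fold-change over DMSO control.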

[3] = biological target: T1, Human soluble guanylate cyclase enzyme (hsGC); test: Purified human sGC enzyme activity assay; assay type: biochemical; conditions: for sGC Enzyme (fold increase at 30 μM) / sGC Enzyme (specific activity at 30 μM) / sGC Enzyme (fold increase at 30 μM without SNP): 30 μM compound; for sGC Enzyme (fold increase at 30 μM): without the addition of SNP; for sGC Enzyme (specific activity at 10 μM) / sGC Enzyme (fold increase at 10 μM without SNP): 10 μM compound
In short: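 Purified human sGC (5 ng) incubated 30 min at 37° C with compound at 10 or 30 μM final in pH 8.0 Tris with 300 μM GTP, 2 mM MgCl2, 2 mM DTT and 1 mM IBMX, then stopped with cold methanol. cGMP quantified against a standard curve. Specific activity (nmol cGMP/mg sGC/min) expressed as fold-change over DMSO control.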

[4] = read-out: HEK WC Assay (% Emax at 10 μM/with 10 uM SNP)
[5] = read-out: HEK WC Assay (% Emax at 30 μM/with 10 uM SNP)
[6] = read-out: HEK WC Assay (% Emax at 10 uM/with 10 uM SNP)
[7] = read-out: HEK WC Assay (% Emax at 30 uM/with 10 uM SNP)

Structure (SMILES) | EC50 (Thoracic aortic rings) [nM] | Emax at 10 µM [1, 4] [%] | Emax at 30 µM [1, 5] [%] | sGC Enzyme (fold increase at 30 μM with SNP) ([2]; with the addition of SNP) | sGC Enzyme (fold increase at 30 μM) [3] | Emax at 10 µM [1, 6] [%] | Emax at 30 µM [1, 7] [%] | sGC Enzyme (fold increase at 10 μM with SNP) ([2]; with 1 μM SNP) | sGC Enzyme (fold increase at 30 μM with SNP) ([2]; with 1 μM SNP) | sGC Enzyme (specific activity at 10 μM) [3] | sGC Enzyme (fold increase at 10 μM without SNP) [3] | sGC Enzyme (specific activity at 30 μM) [3] | sGC Enzyme (fold increase at 30 μM without SNP) [3] | inhibition at 1 µM (Thoracic aortic rings) [%] | inhibition at 3 µM (Thoracic aortic rings; 3 μM) [%] | inhibition at 10 µM (Thoracic aortic rings) [%] | Percent Relaxation at 1 μM (Thoracic aortic rings) | Percent Relaxation at 3 μM (Thoracic aortic rings; 3 μM, printed as words instead of code)
COC(=O)Nc1c(N)nc(-c2cc(-c3ccccc3)n(Cc3ccccc3F)n2)nc1N [Compound I-83] | 4000 to 8000 |  |  | C (C = 5 to <10 fold increase) | D (D = 10 to <30 fold increase) |  |  |  |  |  |  |  |  | 10 to 20 | 20 to 40 | 60 to 80 |  | 
COC(=O)N(C)c1c(N)nc(-c2cc(-c3ccsc3)n(Cc3ccccc3F)n2)nc1N [Compound I-72] |  | 20 to 40 | 20 to 40 | D (D = 10 to <30 fold increase) | D (D = 10 to <30 fold increase) |  |  |  |  |  |  |  |  |  | 20 to 40 | 60 to 80 | 3.1 | 
Nc1ccnc(-c2cc(-c3ncco3)n(Cc3ccccc3F)n2)n1 [Compound I-87] | < 2000 | 60 to 80 | 100 to 120 | D (D = 10 to <30 fold increase) | D (D = 10 to <30 fold increase) |  |  |  |  |  |  |  |  | 60 to 80 | 80 to 100 | 100 to 120 |  | 
Nc1ccnc(-c2cc(-c3nccs3)n(Cc3ccccc3F)n2)n1 [Compound I-86] | < 2000 | 40 to 60 | 60 to 80 | D (D = 10 to <30 fold increase) | C (C = 5 to <10 fold increase) |  |  |  |  |  |  |  |  | 40 to 60 | 80 to 100 | 100 to 120 |  | 
Nc1ccnc(-c2cc(-c3ccccc3)n(Cc3ccccc3F)n2)n1 [Compound I-82] | 4000 to 8000 | 10 to 20 | 10 to 20 | C (C = 5 to <10 fold increase) | C (C = 5 to <10 fold increase) |  |  |  |  |  |  |  |  | 10 to 20 | 20 to 40 | 80 to 100 |  | 
COC(=O)N(C)c1c(N)nc(-c2cc(-c3ccccc3)n(Cc3ccccc3F)n2)nc1N [Compound I-84] | 8000 to 12000 |  |  | B (B = 2 to <5 fold increase) | C (C = 5 to <10 fold increase) |  |  |  |  |  |  |  |  |  |  | 20 to 40 | no relaxation | no relaxation
Cc1ccc(-c2c(Br)c(-c3ccccn3)nn2Cc2ccccc2F)cc1 [Compound I-67] |  |  |  |  |  | 0 to 10 | 0 to 10 | A (A = no increase to <2 fold increase) | A (A = no increase to <2 fold increase) | C (C = 100 to <200) | A (A = no increase to <2 fold increase) | D (D = 200 to <500) | A (A = no increase to <2 fold increase) |  |  |  |  | 
Cc1ccc(-c2c(C#N)c(-c3ncccn3)nn2Cc2ccccc2F)cc1 [Compound I-69, 1-(2-fluorobenzyl)-3-(pyrimidin-2-yl)-5-p-tolyl-1H-pyrazole-4-carbonitrile] |  |  |  |  |  | 0 to 10 | 0 to 10 | A (A = no increase to <2 fold increase) | A (A = no increase to <2 fold increase) |  | A (A = no increase to <2 fold increase) |  | A (A = no increase to <2 fold increase) |  |  |  |  | 
Cc1nc2c(N)nc(-c3cc(-c4nccs4)n(Cc4ccccc4F)n3)nc2[nH]1 [Compound I-95] |  | 10 to 20 | 20 to 40 | C (C = 5 to <10 fold increase) | A (A = no increase to <2 fold increase) |  |  |  |  |  |  |  |  |  |  |  |  | 
Fc1ccccc1Cn1nc(-c2ccccn2)c(Br)c1C1CCC1 [Compound I-64] |  |  |  |  |  | 0 to 10 | 0 to 10 | A (A = no increase to <2 fold increase) | B (B = 2 to <5 fold increase) | A (A = 0 to <50) | A (A = no increase to <2 fold increase) | B (B = 50 to <100) | A (A = no increase to <2 fold increase) |  |  |  |  | 

Second part, led by results:

EC50 (Thoracic aortic rings) [nM] | Emax at 10 µM [1, 4] [%] | Emax at 30 µM [1, 5] [%] | sGC Enzyme (fold increase at 30 μM with SNP) ([2]; with the addition of SNP) | sGC Enzyme (fold increase at 30 μM) [3] | Emax at 10 µM [1, 6] [%] | Emax at 30 µM [1, 7] [%] | sGC Enzyme (fold increase at 10 μM with SNP) ([2]; with 1 μM SNP) | sGC Enzyme (fold increase at 30 μM with SNP) ([2]; with 1 μM SNP) | sGC Enzyme (specific activity at 10 μM) [3] | sGC Enzyme (fold increase at 10 μM without SNP) [3] | sGC Enzyme (specific activity at 30 μM) [3] | sGC Enzyme (fold increase at 30 μM without SNP) [3] | Structure (SMILES) | inhibition at 1 µM (Thoracic aortic rings) [%] | inhibition at 3 µM (Thoracic aortic rings; 3 μM) [%] | inhibition at 10 µM (Thoracic aortic rings) [%] | Percent Relaxation at 1 μM (Thoracic aortic rings) | Percent Relaxation at 3 μM (Thoracic aortic rings; 3 μM, printed as words instead of code)
< 2000 | 40 to 60 | 40 to 60 | D (D = 10 to <30 fold increase) | D (D = 10 to <30 fold increase) |  |  |  |  |  |  |  |  | Nc1ccnc(-c2cc(-c3ccon3)n(Cc3ccccc3F)n2)n1 [Compound I-97] | 80 to 100 | 100 to 120 | 100 to 120 |  | 
< 2000 | 60 to 80 | 60 to 80 | C (C = 5 to <10 fold increase) | B (B = 2 to <5 fold increase) |  |  |  |  |  |  |  |  | N#Cc1cnc(-c2cc(-c3ccon3)n(Cc3ccccc3F)n2)nc1O [Compound I-110] | 40 to 60 | 60 to 80 | 80 to 100 |  | 
< 2000 | 100 to 120 | 80 to 100 | D (D = 10 to <30 fold increase) | C (C = 5 to <10 fold increase) |  |  |  |  |  |  |  |  | CC(=O)Nc1cnc(-c2cc(-c3ccon3)n(Cc3ccccc3F)n2)nc1N [Compound I-112, N-(4-amino-2-(1-(2-fluorobenzyl)-5-(isoxazol-3-yl)-1H-pyrazol-3-yl)pyrimidin-5-yl)acetamide] | 80 to 100 | > 120 | 100 to 120 |  | 
< 2000 |  |  | D (D = 10 to <30 fold increase) | D (D = 10 to <30 fold increase) |  |  |  |  |  |  |  |  | CC(C)(C)OC(=O)Nc1cnc(-c2cc(-c3ccon3)n(Cc3ccccc3F)n2)nc1N [Compound I-106] | 20 to 40 | 60 to 80 | 100 to 120 |  | 
< 2000 | 20 to 40 | 20 to 40 | D (D = 10 to <30 fold increase) | B (B = 2 to <5 fold increase) |  |  |  |  |  |  |  |  | Nc1ccnc(-c2cc(-c3cocn3)n(Cc3ccccc3F)n2)n1 [Compound I-98] | 60 to 80 | 100 to 120 | 100 to 120 |  | 
2000 to 4000 | 80 to 100 | 60 to 80 | D (D = 10 to <30 fold increase) | C (C = 5 to <10 fold increase) |  |  |  |  |  |  |  |  | CN(C(=O)OC(C)(C)C)c1cnc(-c2cc(-c3ccon3)n(Cc3ccccc3F)n2)nc1N [Compound I-115] | 20 to 40 | 40 to 60 | 80 to 100 |  | 
 | 0 to 10 | 0 to 10 | C (C = 5 to <10 fold increase) | A (A = no increase to <2 fold increase) |  |  |  |  |  |  |  |  | CS(=O)(=O)c1cnc(-c2cc(-c3ccon3)n(Cc3ccccc3F)n2)nc1N [Compound I-120] |  |  |  |  | 
 | 20 to 40 | 60 to 80 | D (D = 10 to <30 fold increase) | C (C = 5 to <10 fold increase) |  |  |  |  |  |  |  |  | Nc1nc(-c2cc(-c3ccon3)n(Cc3ccccc3F)n2)ncc1-c1ccccc1 [Compound I-122] |  |  |  |  | 
